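96-well plates; 48 h exposure; 5 concentrations. Endpoints by linear interpolation between flanking doses. Not reached: highest tested concentration assigned. The concentration for 50% growth inhibition is given as GI50.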 The source made the active and inactive calls. Rule as the data show it: active = GI50 up to about 1.1 µM and inactive = higher.
Experiments:
Assay in all cases: NCI anticancer screen, dose series, 48 h
K562 = tested on: K562
LOX IMVI = tested on: LOX IMVI
CAKI-1 = tested on: CAKI-1
HCT-116 = tested on: HCT-116
HOP-92 = tested on: HOP-92
SF-268 = tested on: SF-268
SNB-19 = tested on: SNB-19
SF-295 = tested on: SF-295
A549 = tested on: A549
NCI-H23 = tested on: NCI-H23
SNB-75 = tested on: SNB-75
DLD-1 = tested on: DLD-1
UACC-257 = tested on: UACC-257
COLO 205 = tested on: COLO 205
MOLT-4 = tested on: MOLT-4
HCT-15 = tested on: HCT-15
SK-MEL-2 = tested on: SK-MEL-2
SW-620 = tested on: SW-620
M19-MEL = tested on: M19-MEL
UACC-62 = tested on: UACC-62
DMS-273 = tested on: DMS-273
SK-OV-3 = tested on: SK-OV-3
Malme-3M = tested on: Malme-3M
HL-60 = tested on: HL-60
NCI/ADR-RES = tested on: NCI/ADR-RES
UO-31 = tested on: UO-31
NCI-H460 = tested on: NCI-H460
MCF7 = tested on: MCF7
HOP-18 = tested on: HOP-18
RXF 393 = tested on: RXF 393
RPMI-8226 = tested on: RPMI-8226
SK-MEL-5 = tested on: SK-MEL-5
DMS-114 = tested on: DMS-114
HT-29 = tested on: HT-29
IGROV-1 = tested on: IGROV-1
NCI-H226 = tested on: NCI-H226
HOP-62 = tested on: HOP-62
OVCAR-3 = tested on: OVCAR-3
OVCAR-4 = tested on: OVCAR-4
OVCAR-8 = tested on: OVCAR-8
U-251 = tested on: U-251
A498 = tested on: A498
SK-MEL-28 = tested on: SK-MEL-28
SNB-78 = tested on: SNB-78
XF498 = tested on: XF498
CCRF-CEM = tested on: CCRF-CEM
KM-20L2 = tested on: KM-20L2
KM12 = tested on: KM12
EKVX = tested on: EKVX
HCC 2998 = tested on: HCC 2998
OVCAR-5 = tested on: OVCAR-5
SN12C = tested on: SN12C
SF-539 = tested on: SF-539
NCI-H522 = tested on: NCI-H522

Measured: GI50

Cc1ccc2cc3cccc(C(=O)NCCN(C)C)c3nc2c1
955 nM: HCT-15
inactive: NCI-H23 1250 nM | SNB-75 1330 nM | SK-MEL-2 1870 nM | UACC-62 1370 nM | SK-OV-3 1570 nM | HOP-18 2230 nM | SK-MEL-5 1320 nM | IGROV-1 1420 nM | OVCAR-3 1360 nM | U-251 1660 nM | SK-MEL-28 1630 nM | SNB-78 1370 nM | KM12 1540 nM | EKVX 1140 nM | HCC 2998 1490 nM | OVCAR-5 1470 nM | SF-539 1380 nM
active: K562 690 nM | LOX IMVI 818 nM | CAKI-1 275 nM | HCT-116 459 nM | HOP-92 376 nM | SF-268 1080 nM | SNB-19 925 nM | SF-295 832 nM | A549 644 nM | DLD-1 935 nM | UACC-257 946 nM | COLO 205 483 nM | MOLT-4 321 nM | SW-620 514 nM | M19-MEL 977 nM | DMS-273 647 nM | Malme-3M 1060 nM | HL-60 565 nM | NCI/ADR-RES 771 nM | UO-31 839 nM | NCI-H460 315 nM | MCF7 681 nM | RXF 393 1010 nM | RPMI-8226 807 nM | DMS-114 929 nM | HT-29 449 nM | NCI-H226 927 nM | HOP-62 923 nM | OVCAR-4 998 nM | OVCAR-8 631 nM | A498 419 nM | XF498 977 nM | CCRF-CEM 679 nM | KM-20L2 733 nM | SN12C 893 nM

CN(C)CCNC(=O)c1cc(Cl)cc2ccc(-c3ccccc3)nc12
2850 nM: HCT-15
inactive: K562 1780 nM | LOX IMVI 2320 nM | CAKI-1 2040 nM | HCT-116 2180 nM | HOP-92 2820 nM | SF-268 4570 nM | SNB-19 5040 nM | SF-295 3860 nM | A549 2870 nM | NCI-H23 3960 nM | SNB-75 1860 nM | DLD-1 3300 nM | UACC-257 2920 nM | COLO 205 1600 nM | SK-MEL-2 4850 nM | SW-620 2320 nM | M19-MEL 3150 nM | UACC-62 2450 nM | DMS-273 2300 nM | SK-OV-3 3130 nM | Malme-3M 3630 nM | HL-60 2050 nM | NCI/ADR-RES 2510 nM | UO-31 1910 nM | NCI-H460 2000 nM | MCF7 1820 nM | HOP-18 3520 nM | RXF 393 3860 nM | RPMI-8226 1850 nM | SK-MEL-5 1870 nM | DMS-114 3460 nM | HT-29 2220 nM | IGROV-1 3180 nM | NCI-H226 2490 nM | HOP-62 3130 nM | OVCAR-3 3740 nM | OVCAR-4 3920 nM | OVCAR-8 2920 nM | NCI-H522 5370 nM | U-251 4320 nM | A498 5480 nM | SK-MEL-28 4830 nM | SNB-78 8130 nM | XF498 2180 nM | CCRF-CEM 1490 nM | KM-20L2 2650 nM | KM12 4840 nM | EKVX 5120 nM | HCC 2998 3540 nM | OVCAR-5 4840 nM | SN12C 3020 nM | SF-539 3090 nM
active: MOLT-4 447 nM
